One assay has as its target 5-HT2A receptor (Mus musculus, UniProt P35363). The assay is described as follows: Mouse head twitch response (HTR). In kind it is in vivo. The settings on record: for ED50: mouse. Set-up: endogenous in cells; host or cells: adult male C57BL/6J mice, in vivo. As for the experimental part:
The head twitch response (HTR) assay in rodents is commonly used as a behavioral proxy for 5-HT2A receptor activation. For classical serotonergic psychedelics, mouse HTR potency correlates with potency of subjective effects in humans. The ability of compound 2-1 to induce HTR in mice was assessed using a validated and automated detection system. Briefly, adult male C57BL/6J mice surgically prepared with a small neodymium magnet (4.57 mm×4.57 mm×2.03 mm) attached to the cranium were injected intraperitoneally (i.p.) with single doses of compound 2-1 (0.3, 1, 3, 10, 30 mg/kg, based on weight of the free base) or 40% (w/v) 2-HPBCD (hydroxypropyl-beta-cyclodextrin) vehicle (n=5-6 mice per treatment). In a 5-HT2A receptor antagonism study, M100907, a 5-HT receptor antagonist (0.001, 0.01, 0.1 mg/kg, i.p.) was administered 20 minutes prior to compound 2-1. Immediately after compound 2-1 injection, the mouse was placed individually in a glass cylinder surrounded by a magnetometer coil. HTR were recorded for 30 minutes and analyzed using a validated technique based on artificial intelligence. […] In FIG. 1A, FIG. 1B, and FIG. 1C, HTR data were analyzed using a 1-way Analysis of Variance (ANOVA) followed by Dunnett's test **p<0.01, ***p<0.001, ****p<0.0001 vs. vehicle).
The HTR assay in rodents is commonly used as a behavioral proxy for 5-HT2A receptor activation. For classical serotonergic psychedelics, mouse HTR potency correlates with potency of subjective effects in humans. The ability of compound 2-2 to induce HTR in mice was assessed using a validated and automated detection system. Briefly, adult male C57BL/6J mice surgically prepared with a small neodymium magnet (4.57 mm×4.57 mm×2.03 mm) attached to the cranium were injected intraperitoneally (i.p.) with single doses of compound 2-2 (0.3, 1, 3, 10, 30 mg/kg, based on weight of the free base) or 40% (w/v) 2-HPBCD vehicle (n=5-6 mice per treatment). In a 5-HT2A receptor antagonism study, M100907 (0.001, 0.01, 0.1 mg/kg, i.p.) was administered 20 minutes prior to compound 2-2. Immediately after compound 2-2 injection, the mouse was placed individually in a glass cylinder surrounded by a magnetometer coil. HTR were recorded for 30 minutes and analyzed using a validated technique based on artificial intelligence. […] HTR were analyzed using a 1-way Analysis of Variance (ANOVA) followed by Dunnett's test (*p<0.05, **p<0.01, ***p<0.001, ****p<0.0001 vs. vehicle).

In a further assay the target is T1, 5-HT2B (Homo sapiens, UniProt P41595).
T1 construct: expressed in transfected cells
The assay is described as follows: IPOne, 5-HT2B. In kind it is cell-based. Particulars: for Emax: IPOne, human 5-HT2B, read-out: Emax (% α-Me-5-HT). As for the experimental part:
(§1) In vitro pharmacology studies were performed to evaluate the effects of compound 2-1 on functional activity of several 5-HT receptors using recombinant target overexpression cell culture systems. The effect of compound 2-1 on G protein-dependent signaling was investigated at 5-HT2A, 5-HT2B, and 5-HT2C receptors with calcium mobilization and IPOne assays; and at 5-HT1A, 5-HT1B, 5-HT1F, 5-HT5A, and 5-HT7D receptors with a cAMP assay. G protein-independent signaling was investigated at the 5-HT2A receptor with a β-Arrestin assay.
(§2) In vitro pharmacology studies were performed to evaluate the effects of compound 2-2 on functional activity at several 5-HT receptors using recombinant target overexpression cell culture systems. The effect of compound 2-2 on G protein-dependent signaling was investigated at 5-HT2A, 5-HT2B, and 5-HT2C receptors with calcium mobilization and IPOne assays; and at 5-HT1A, 5-HT1B, 5-HT1F, 5-HT5A, and 5-HT7D receptors with a cAMP assay. G protein-independent signaling was investigated at the 5-HT2A receptor with a β-arrestin assay. […] In Table 4, 5-HT receptor selectivity was calculated using ΔΔlog(Emax/EC50). Assay reference α-Me-5-HT or 5-HT was used for normalization at each receptor (5-HT2A/5-HT2B selectivity=1; 5-HT2A/5-HT2C selectivity=1). ND in Table 4 indicates, not determined, plateau was not reached within the concentration range tested to determine Emax.

The target in assay [1] is T2, 5-HT2A (Homo sapiens, UniProt P28223). The assay is described as follows: Ca++ (calcium mobilization), 5-HT2A. The settings on record: for Emax: read-out: Emax (%5-HT). In kind it is cell-based. More on the design: expressed in transfected cells. The method, then:
as §1, §2

The target of another assay is T3, 5-HT7D (Homo sapiens, UniProt P34969).
T3 construct: expressed in transfected cells
The assay is described as follows: cAMP, 5-HT7D. In kind it is cell-based. The method, then:
as §1, §2

A further assay has as its target T4, 5-HT1A (Homo sapiens, UniProt P08908).
T4 construct: expressed in transfected cells
T4 sequence (P08908 1-422): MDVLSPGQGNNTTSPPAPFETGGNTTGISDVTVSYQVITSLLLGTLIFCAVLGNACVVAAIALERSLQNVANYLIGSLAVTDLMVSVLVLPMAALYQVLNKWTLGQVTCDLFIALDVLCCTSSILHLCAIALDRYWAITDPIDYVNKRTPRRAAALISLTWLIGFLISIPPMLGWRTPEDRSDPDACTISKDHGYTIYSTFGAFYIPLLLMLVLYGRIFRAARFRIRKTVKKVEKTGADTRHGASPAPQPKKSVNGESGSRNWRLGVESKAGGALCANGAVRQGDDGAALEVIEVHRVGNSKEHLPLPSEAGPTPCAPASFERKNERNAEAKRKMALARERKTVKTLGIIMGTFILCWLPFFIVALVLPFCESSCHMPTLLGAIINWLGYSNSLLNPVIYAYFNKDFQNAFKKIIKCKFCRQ
Put plainly: cAMP, 5-HT1A. It is filed as cell-based. As for the experimental part:
as §1, §2

Assay [2] concerns the target T2, 5-HT2A. The assay is described as follows: IPOne, 5-HT2A. In kind it is cell-based. More on the design: expressed in transfected cells. Particulars: for Emax: read-out: Emax (% α-Me-5-HT). The method, then:
as §1, §2

The subject of assay [3] is 5-HT2A. Put plainly: Ca++ (calcium mobilization), 5-HT2A. In kind it is cell-based, human. Particulars: Ca++, human; calculated using ΔΔlog(Emax/EC50), reference = 1. As for the experimental part: as §1, §2
Another assay deals with 5-HT2B (rat) (Rattus norvegicus, UniProt P30994). Put plainly: IPOne, rat 5-HT2B. In kind it is cell-based. An excerpt: Overall, in vitro activity at rodent 5-HT2A and 5-HT2B receptors is consistent with the human receptor results, with compound 2-1 acting as a potent and selective 5-HT2A agonist.
Overall, in vitro activity at rodent 5-HT2A and […] receptors is consistent with the human receptor results, with compound 2-2 acting as a potent and selective 5-HT2A agonist. In Table 5, ND indicates not determined.

Where [4] appears, read: ip, C57BL/6J mice, 30 minutes, read-out: HTR 50% effective dose (ED50).

Read-outs that look alike come from different tables or passages of the source. Some results are limits rather than exact numbers.

Sequence of 5-HT2A receptor (P35363 whole entry): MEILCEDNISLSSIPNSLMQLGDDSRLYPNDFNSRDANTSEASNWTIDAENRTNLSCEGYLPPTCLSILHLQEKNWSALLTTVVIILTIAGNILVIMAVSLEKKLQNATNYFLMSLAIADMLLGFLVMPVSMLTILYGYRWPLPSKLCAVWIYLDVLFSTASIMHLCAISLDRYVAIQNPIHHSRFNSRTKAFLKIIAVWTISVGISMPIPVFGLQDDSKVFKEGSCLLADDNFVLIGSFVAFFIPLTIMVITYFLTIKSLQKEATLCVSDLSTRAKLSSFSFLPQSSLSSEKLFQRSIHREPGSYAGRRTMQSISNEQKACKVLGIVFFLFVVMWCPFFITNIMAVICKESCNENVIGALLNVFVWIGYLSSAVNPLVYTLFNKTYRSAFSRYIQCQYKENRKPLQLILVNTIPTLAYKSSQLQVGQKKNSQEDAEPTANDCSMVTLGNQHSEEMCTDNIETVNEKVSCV
T2 sequence (P28223 whole entry): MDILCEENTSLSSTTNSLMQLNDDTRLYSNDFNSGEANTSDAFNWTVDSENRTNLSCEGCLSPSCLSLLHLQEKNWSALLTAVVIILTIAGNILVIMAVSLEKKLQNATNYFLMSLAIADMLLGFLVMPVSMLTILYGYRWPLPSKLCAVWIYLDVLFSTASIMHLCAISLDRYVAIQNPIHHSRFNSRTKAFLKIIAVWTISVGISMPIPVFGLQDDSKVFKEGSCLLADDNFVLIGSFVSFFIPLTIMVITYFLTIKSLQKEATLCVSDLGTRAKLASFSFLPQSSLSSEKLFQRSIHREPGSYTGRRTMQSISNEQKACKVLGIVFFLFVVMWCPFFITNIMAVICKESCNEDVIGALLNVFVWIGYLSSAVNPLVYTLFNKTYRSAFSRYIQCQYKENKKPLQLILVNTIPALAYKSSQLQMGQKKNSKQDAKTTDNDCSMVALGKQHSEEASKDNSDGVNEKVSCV
Sequence of 5-HT2B (rat) (P30994 whole entry): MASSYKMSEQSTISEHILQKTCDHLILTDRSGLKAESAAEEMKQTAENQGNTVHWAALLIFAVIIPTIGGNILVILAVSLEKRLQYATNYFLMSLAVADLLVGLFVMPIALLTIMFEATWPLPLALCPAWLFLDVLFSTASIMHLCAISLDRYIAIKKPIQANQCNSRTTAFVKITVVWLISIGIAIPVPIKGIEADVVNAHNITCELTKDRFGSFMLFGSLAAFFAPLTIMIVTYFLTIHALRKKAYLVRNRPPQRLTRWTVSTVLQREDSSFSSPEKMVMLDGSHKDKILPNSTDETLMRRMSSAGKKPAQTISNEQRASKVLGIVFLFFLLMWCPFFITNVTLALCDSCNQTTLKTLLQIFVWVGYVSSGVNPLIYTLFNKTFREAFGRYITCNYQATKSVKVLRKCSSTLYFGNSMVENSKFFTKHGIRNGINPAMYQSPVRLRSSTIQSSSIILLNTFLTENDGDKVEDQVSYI
T1 sequence (P41595 whole entry): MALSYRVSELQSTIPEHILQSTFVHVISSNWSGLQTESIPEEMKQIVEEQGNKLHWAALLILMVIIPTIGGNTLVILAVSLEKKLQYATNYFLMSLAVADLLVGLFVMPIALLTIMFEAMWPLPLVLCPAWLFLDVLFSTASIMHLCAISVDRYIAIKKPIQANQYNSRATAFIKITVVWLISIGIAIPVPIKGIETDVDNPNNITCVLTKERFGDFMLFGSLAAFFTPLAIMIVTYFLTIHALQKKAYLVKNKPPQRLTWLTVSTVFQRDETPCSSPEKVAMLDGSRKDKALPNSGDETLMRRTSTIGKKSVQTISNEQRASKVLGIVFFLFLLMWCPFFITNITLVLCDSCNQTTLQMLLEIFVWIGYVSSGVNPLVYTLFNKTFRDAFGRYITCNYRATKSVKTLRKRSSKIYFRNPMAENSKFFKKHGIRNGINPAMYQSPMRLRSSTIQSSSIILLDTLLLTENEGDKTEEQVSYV
T3 sequence (P34969 whole entry): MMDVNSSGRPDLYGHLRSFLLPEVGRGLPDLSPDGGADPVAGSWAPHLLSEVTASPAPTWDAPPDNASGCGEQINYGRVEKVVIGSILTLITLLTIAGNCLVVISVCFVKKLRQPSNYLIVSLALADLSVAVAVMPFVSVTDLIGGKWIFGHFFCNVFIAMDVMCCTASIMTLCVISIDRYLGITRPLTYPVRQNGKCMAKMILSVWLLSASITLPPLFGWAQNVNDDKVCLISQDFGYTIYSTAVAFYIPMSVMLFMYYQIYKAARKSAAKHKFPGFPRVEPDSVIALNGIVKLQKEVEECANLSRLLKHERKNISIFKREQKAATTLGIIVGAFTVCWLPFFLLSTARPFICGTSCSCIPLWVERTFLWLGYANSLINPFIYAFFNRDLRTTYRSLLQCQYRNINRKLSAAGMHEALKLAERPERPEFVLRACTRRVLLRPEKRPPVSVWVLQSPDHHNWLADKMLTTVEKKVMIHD

On to `COc1ccc(OC)c(CCNCc2cc(C)cc(F)c2)c1` [Compound 2-2, 2-(2,5-dimethoxyphenyl)-N-(3-fluoro-5-methylbenzyl)ethan-1-amine], for which the ED50 on 5-HT2A receptor (setting [4]) is 3.2 mg/kg; at 5-HT2A receptor (po, mice, read-out: HTR ED50) it was 13.7 mg/kg. The concentration giving a half-maximal response (EC50) is 0.0811 µM on 5-HT2B; 0.009 µM at 5-HT2A [1]; above 100 µM at 5-HT7D; above 1 µM on 5-HT1A; 0.00919 µM on 5-HT2A [2]; above 1 µM at 5-HT2B (rat). Also, the Emax on 5-HT2B stood at 49.3%; on 5-HT2A [1], 88%; on 5-HT2A [2] it was 97.9%. Further, the “5-HT2A/5-HT2C Selectivity” value with 5-HT2A [3] is given as 56.
As for `COc1ccc(OC)c(CCNCc2cc(C)cc(Cl)c2)c1` [Compound 2-1, N-(3-chloro-5-methylbenzyl)-2-(2,5-dimethoxyphenyl)ethan-1-amine], the “shape of HTR dose-response curve” value at 5-HT2A receptor (0.3-30 mg/kg i.p.) was “inverted “U”-shaped”. Besides, the “HTR compared to vehicle” value at 5-HT2A receptor (3 and 10 mg/kg, i.p.) is “significantly increased”; on 5-HT2A receptor (oral, 30 mg/kg), “increased HTR significantly”. Besides, at 5-HT2A receptor (M100907 0.001, 0.01, 0.1 mg/kg i.p. 20 minutes prior, compound i.p.), the “HTR after M100907 pretreatment” value was “significant dose-dependent attenuation”. Moreover, the ED50 on 5-HT2A receptor (setting [4]) turned out to be 1.7 mg/kg; on 5-HT2A receptor (po, mice, read-out: HTR ED50), 15.7 mg/kg. Further, the EC50 at 5-HT2B was 0.0347 µM; on 5-HT2A [1], 0.00424 µM; at 5-HT7D it was above 100 µM; at 5-HT1A, above 20 µM; on 5-HT2A [2], 0.0028 µM; on 5-HT2B (rat) it was above 1 µM. Further, the values for the Emax at 5-HT2B, at 5-HT2A [1] and on 5-HT2A [2] were 77.6%, 93.3% and 99.4%, respectively. Moreover, the “agonist activity (in words)” value on 5-HT2B (human 5-HT2B receptor) was “full agonist activity”; on 5-HT2B (rat) (rat 5-HT2B receptor) it was “inactive”. Further, the “5-HT2A/5-HT2C Selectivity” value with 5-HT2A [3] is reported as 77.

Source of the values: patent US12343319B2, “Compositions and methods for treatment of diseases and disorders” (Atai Therapeutics Inc., priority 2023, dated 2025).
